Data as given in patent US8975259B2, “Compositions and methods for inhibiting G protein signaling” (University of Rochester, priority 2007, dated 2015).
Like-named read-outs stand apart in the source and are kept apart here.

Columns and labels:
[1] = tested on: primary human neutrophils; assay: IL-8-induced chemotaxis of primary human neutrophils (Boyden chamber); format: cell-based; conditions: 10 μM compound, 10 nM IL-8; result in words
Protocol: Differentiated HL60 cells (200 k) were pretreated with 10 μM concentrations of the indicated compound, challenged with 250 nM fMLP, and assayed for chemotaxis in a Boyden chamber for 1 h at 37° C. […] Chemotaxis was quantified as above by subtracting out background cells (0-10 cells) in the absence of chemoattractant to obtain total transmigrated cells (−100 cells GM-CSF+vehicle) and represented as the percentage of GM-CSF-treated control cells. No statistically significant difference from control was seen by ANOVA. […] Primary human neutrophils were isolated from whole blood to ≧80% purity. […] Chemotaxis was quantified as above by subtracting out background cells to obtain total transmigrated cells and represented as the percentage of fMLP-treated control cells. […]
Chemotaxis was assayed using a Boyden chamber (Neuro Probe, Gaithersburg, Md.) using 3-μm polyvinylpyrrolidone-free polycarbonate filters (Neuro Probe). […] Chemotactic HL60 cells were scored by counting three microscope fields and subtracting the number of cells from fMLP wells as background. […] For all the small molecules, effects of the compounds on chemokinesis was analyzed by measuring chemotaxis in the presence of 250 nM fMLP in both the upper and lower chambers of the Boyden Chamber and measuring changes in transwell migration. […]

Gβ1γ2 = Gβ1γ2 (UniProt P54311+P63212); assay: Surface plasmon resonance direct binding to Gβ1γ2; parameters: made in house; host or cells: Sf9 insect cells (baculovirus); conditions: for kon: read-out: association rate constant (kon, ka); for koff: read-out: dissociation rate constant (koff, kd)
Sequence of Gβ1γ2 (P54311 whole entry): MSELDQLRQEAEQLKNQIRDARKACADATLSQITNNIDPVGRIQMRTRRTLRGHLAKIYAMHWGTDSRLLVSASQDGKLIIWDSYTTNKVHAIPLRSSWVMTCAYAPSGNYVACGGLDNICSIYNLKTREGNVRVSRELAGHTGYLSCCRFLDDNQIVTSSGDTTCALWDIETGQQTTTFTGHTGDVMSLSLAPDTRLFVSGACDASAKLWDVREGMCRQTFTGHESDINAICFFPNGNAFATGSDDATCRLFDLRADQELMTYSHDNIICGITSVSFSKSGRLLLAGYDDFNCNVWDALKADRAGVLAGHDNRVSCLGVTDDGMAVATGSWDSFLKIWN
Sequence of Gβ1γ2 (P63212 2-68 limits assumed): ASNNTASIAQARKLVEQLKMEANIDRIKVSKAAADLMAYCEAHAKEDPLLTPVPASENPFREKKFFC
From the text: To understand the protein binding characteristics of compounds a surface plasmon resonance (SPR) method was developed for monitoring direct small molecule binding to G βγ subunits using a Reichert SPR instrument. In addition to binding affinity, binding kinetics can be obtained from this analysis. […] To obtain the data in herein, 3000 refractive index units (RIU) of Gβ1γ2 was immobilized to maximize detection of small molecule binding (Karlsson et al., 2006; Markgren et al., 2001; Rich et al., 2001) and compounds were injected at 75 μl/min and changes in bulk refractive index were accounted for in a reference flow cell. […] This method is used to analyze compound binding kinetics and calculate equilibrium binding constants to test the mechanisms of action and selectivity of various “hot spot” binding compounds.
Direct binding of “hot spot” binding small molecules was assessed using the Reichert SR7000 Surface Plasmon Resonance dual chamber instrument equipped with an autosampler (Reichert, Depew, N.Y.). To activate the sensor chip surface, a mixture of 0.1 M 1-ethyl-3-(3-dimethylaminopropyl) carbodiimide hydrochloride and 0.05 M N-hydroxysuccinimide was injected (flow rate 5 μl/min) over the sensor surface. Streptavidin (100 μg/ml; prepared in 20 mM sodium acetate buffer, pH 5.5) was coupled to the sensor chip surface followed by quenching the remaining activated carboxyl groups with 1 M ethanolamine, pH 8.5. bGβ1γ2 was conjugated to the streptavidin-coated chip in running buffer (50 mM HEPES, pH 7.6, 1 mM EDTA, 100 mM NaCl, 0.1% C12E10, and 1 mM dithiothreitol) to achieve 2000 micro-refractive index units. A second reference cell was treated similarly, but bGβ1γ2 was excluded. Direct binding of small molecules was tested out at room temperature with a flow rate of 75 μl/min. Compounds were prepared in running buffer and injected for 10 min followed by a dissociation phase of 10 min. The obtained sensorgrams were corrected for nonspecific background by running the same experiment in series over an identical sensor surface with immobilized streptavidin, blocked with biotin, without bGβγ. […] Best fit kinetic parameters were determined using kinetic titration model and ClampXP ver. 3.5, which accounts for incomplete dissociation between injections (Karisson et al., 2006).

[2] = tested on: differentiated HL60 cells; assay: Chemokinesis (fMLP in upper and lower Boyden chambers); format: cell-based, human; conditions: fMLP in both chambers; result in words
Protocol: Same as A with purified human neutrophils.
Chemotaxis was assayed using a Boyden chamber (Neuro Probe, Gaithersburg, Md.) using 3-μm polyvinylpyrrolidone-free polycarbonate filters (Neuro Probe). HL60 cells (differentiated for 4 days) were washed with and resuspended in HBSS containing 1% bovine serum albumin to a final concentration of 1×10^6 cells/ml. Primary human neutrophils were washed and resuspended in NaCl buffer (140 mM NaCl, 4 mM KCl, 10 mM D-glucose, 10 mM HEPES, pH 7.4, 1 mM MgCl2, and 1 mM CaCl2) to a final concentration of 1×10^6 cells/mi. Chemoattractant [1 μM granulocyte-macrophage-colony stimulating factor (GM-CSF), 10 nM IL-8, or 250 nM fMLP; Sigma Aldrich] was added to the bottom chamber in HBSS containing 1% bovine serum albumin. Cell suspensions (0.2×10^6 cells/well) were added to the top wells of the Boyden chamber and allowed to migrate for 1 h at 37° C. […] Chemotactic HL60 cells were scored by counting three microscope fields and subtracting the number of cells from fMLP wells as background. […] For all the small molecules, effects of the compounds on chemokinesis was analyzed by measuring chemotaxis in the presence of 250 nM fMLP in both the upper and lower chambers of the Boyden Chamber and measuring changes in transwell migration. […]

Gβγ-GRK2 interaction = molecular target: T1, Gβγ-GRK2 interaction (UniProt P54311+P63212); assay: GRK2 binding to biotinylated Gβ1γ2 on streptavidin agarose
T1 construct: made in house; host or cells: bGβ1γ2: Sf9 insect cells
T1 sequence (P54311 whole entry): as the sequence (P54311 whole entry) above
T1 sequence (P63212 2-68 limits assumed): as the sequence (P63212 2-68 limits assumed) above

Row | Kd (Gβ1γ2; SPR, read-out: Kd) [nM] | effect on GRK2 binding to bGβ1γ2 (Gβγ-GRK2 interaction; result in words) | Structure (SMILES) | effect on IL-8 regulated chemotaxis [1] | kon (Gβ1γ2; SPR) [M⁻¹ s⁻¹] | koff (Gβ1γ2; SPR) [s⁻¹] | effect on chemokinesis [2] | IC50 (Gβγ-GRK2 interaction) [nM] | Kd (Gβ1γ2) [nM]
1 | ~400 |  | O=C(O)c1ccccc1-c1c2ccc(=O)c(O)c-2oc2c(O)c(O)ccc12 (racemic) [Gallein] | blocked | 1130 ± 17 | 0.00043 | Neither M119 nor gallein had any effects |  | 
2 |  |  | O=C(O)C1CCCCC1c1c2ccc(=O)c(O)c-2oc2c(O)c(O)ccc12 (stereo not drawn) [Compound M119, cyclohexanecarboxylic acid, 2-(4,5,6-trihydroxy-3-oxo-3H-xanthen-9-yl)-(9cl)] | blocked | 2000 | 0.0002 | Neither M119 nor gallein had any effects | ~5000 | 100
3 |  | did not have effects | O=C(O)C1CCCCC1c1c2ccc(=O)cc-2oc2cc(O)ccc12 (stereo not drawn) [Compound M119B] |  |  |  |  |  | 
